Measured values: PubChem BioAssay AID1259407 (Chemical Carcinogenesis Research Information System (CCRIS), 2018)
Activity calls are given as the source filed them. No rule for the calls is given here.

System: CCRIS mutagenicity, Ames/micronucleus/aberration tests
Experiment: CCRIS mutagenicity studies
Conditions: Test System: AMES SALMONELLA TYPHIMURIUM, Method: PREINCUBATION

Measured: mutagenic call

CCCCOCCCC
inactive: Strain/Indicator: TA97, Metabolic Activation: HAMSTER, LIVER, S-9, AROCLOR 1254 (10%) inactive; negative | Strain/Indicator: TA97, Metabolic Activation: HAMSTER, LIVER, S-9, AROCLOR 1254 (30%) inactive; negative | Strain/Indicator: TA97, Metabolic Activation: NONE inactive; negative | Strain/Indicator: TA97, Metabolic Activation: RAT, LIVER, S-9, AROCLOR 1254 (10%) inactive; negative | Strain/Indicator: TA97, Metabolic Activation: RAT, LIVER, S-9, AROCLOR 1254 (30%) inactive; negative | Strain/Indicator: TA98, Metabolic Activation: HAMSTER, LIVER, S-9, AROCLOR 1254 (10%) inactive; negative | Strain/Indicator: TA98, Metabolic Activation: HAMSTER, LIVER, S-9, AROCLOR 1254 (30%) inactive; negative | Strain/Indicator: TA98, Metabolic Activation: NONE inactive; negative | Strain/Indicator: TA98, Metabolic Activation: RAT, LIVER, S-9, AROCLOR 1254 (10%) inactive; negative | Strain/Indicator: TA98, Metabolic Activation: RAT, LIVER, S-9, AROCLOR 1254 (30%) inactive; negative | Strain/Indicator: TA100, Metabolic Activation: HAMSTER, LIVER, S-9, AROCLOR 1254 (10%) inactive; negative | Strain/Indicator: TA100, Metabolic Activation: HAMSTER, LIVER, S-9, AROCLOR 1254 (30%) inactive; negative | Strain/Indicator: TA100, Metabolic Activation: NONE inactive; negative | Strain/Indicator: TA100, Metabolic Activation: RAT, LIVER, S-9, AROCLOR 1254 (10%) inactive; negative | Strain/Indicator: TA100, Metabolic Activation: RAT, LIVER, S-9, AROCLOR 1254 (30%) inactive; negative | Strain/Indicator: TA1535, Metabolic Activation: HAMSTER, LIVER, S-9, AROCLOR 1254 (10%) inactive; negative | Strain/Indicator: TA1535, Metabolic Activation: HAMSTER, LIVER, S-9, AROCLOR 1254 (30%) inactive; negative | Strain/Indicator: TA1535, Metabolic Activation: NONE inactive; negative | Strain/Indicator: TA1535, Metabolic Activation: RAT, LIVER, S-9, AROCLOR 1254 (10%) inactive; negative | Strain/Indicator: TA1535, Metabolic Activation: RAT, LIVER, S-9, AROCLOR 1254 (30%) inactive; negative
